Laboratory results: PMC13181795, “Structural Basis for BD1-Preferring 2,4-Disubstituted Pyrimidine BRDT Inhibitors” (Journal of Medicinal Chemistry, 2026)

Assay: Metabolic stability in male mouse liver microsomes
Assay type: in vitro ADME

- Scaled-up CLint: 130 mL/min/kg
Structure (SMILES): O=C(O)Cc1ccccc1Nc1c(Cl)cccc1Cl [Diclofenac]
